From ChEMBL document CHEMBL5614379, “The synthesis of 1,2,3-triazoles as binders of D-dopachrome tautomerase (D-DT) for the development of dual-targeting inhibitors” (Eur J Med Chem, 2024) come the findings set out here.

Calls of active or inactive are those of the source. The calls are words filed in the database; no cut-off is given here.

Assay [1] deals with T1, Macrophage migration inhibitory factor (Homo sapiens) (UniProt P14174).
T1 sequence (whole entry): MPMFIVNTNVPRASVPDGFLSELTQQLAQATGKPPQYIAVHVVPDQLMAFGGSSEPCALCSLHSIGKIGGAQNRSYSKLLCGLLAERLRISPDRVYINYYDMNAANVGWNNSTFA
Put plainly: Non-competitive inhibition of MIF (unknown origin) at 12.5 uM using pyruvic acid as substrate incubated for 10 mins by absorbance based analysis.

Assay [2] deals with D-dopachrome decarboxylase (Homo sapiens, UniProt P30046). Put plainly: Inhibition of DDT (unknown origin) expressed in Escherichia coli by absorbance based analysis.

The IC50 is the concentration at which inhibition is half-maximal. A higher IC50 goes with weaker potency.

In the case of `COc1cccc2c1CC(NC(=O)c1cn(-c3ccc(Cl)c(C(F)(F)F)c3)nn1)CC2` (configuration not stated), the inhibition entry in assay [1] was “Active”.

In turn, `O=C(O)c1cccc(-c2cc(C(=O)O)ncc2C(=O)O)c1` returned an IC50 in assay [2] of 27 µM.
